ChEMBL document CHEMBL1201862, “PubChem BioAssay data set” (2004)
Activity calls are given as the source filed them.

Key:
[1] = biological target: T1, Bcl-2-like protein 10 (Homo sapiens, UniProt Q9HD36); test: displacers of TR3 peptide from Bcl-B, primary screen, selectivity assay for Bfl-1 inhibitor project, biochemical, fluorescence polarization, FITC-TR3 peptide (AID 748);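 also: fluorescence polarization from a fluorescein-labelled TR3 peptide binding purified Bcl-B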
T1 sequence (Q9HD36 whole entry): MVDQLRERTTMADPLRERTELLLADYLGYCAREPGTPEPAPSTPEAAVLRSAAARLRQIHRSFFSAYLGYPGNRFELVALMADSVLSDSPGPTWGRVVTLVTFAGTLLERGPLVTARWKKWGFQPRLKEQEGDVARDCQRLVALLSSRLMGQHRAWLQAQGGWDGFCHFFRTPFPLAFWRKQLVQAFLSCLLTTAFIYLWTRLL

[2] = HEp-2 cell cytotoxicity, dose response, cytotoxicity control for RSV inhibitor project, HTS (AID 2410); type: functional; details: human respiratory syncytial virus
[3] = biological target: DNA damage-inducible transcript 3 protein (Mus musculus, UniProt P35639); type: functional, Cricetulus griseus
[4] = biological target: T2, Oxysterols receptor LXR-beta (Homo sapiens, UniProt P55055); type: functional, cell-based;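 also: agonist activity at LXR measured by a cell-based luminescence readout across a dose range, run as a counterscreen for daf-12 agonists; HEK293 cells with Gal4-LXR fusion and GAL4-driven luciferase reporter; potency for activation of Gal4-LXR reporter so compounds are agonists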
T2 sequence (P55055 whole entry): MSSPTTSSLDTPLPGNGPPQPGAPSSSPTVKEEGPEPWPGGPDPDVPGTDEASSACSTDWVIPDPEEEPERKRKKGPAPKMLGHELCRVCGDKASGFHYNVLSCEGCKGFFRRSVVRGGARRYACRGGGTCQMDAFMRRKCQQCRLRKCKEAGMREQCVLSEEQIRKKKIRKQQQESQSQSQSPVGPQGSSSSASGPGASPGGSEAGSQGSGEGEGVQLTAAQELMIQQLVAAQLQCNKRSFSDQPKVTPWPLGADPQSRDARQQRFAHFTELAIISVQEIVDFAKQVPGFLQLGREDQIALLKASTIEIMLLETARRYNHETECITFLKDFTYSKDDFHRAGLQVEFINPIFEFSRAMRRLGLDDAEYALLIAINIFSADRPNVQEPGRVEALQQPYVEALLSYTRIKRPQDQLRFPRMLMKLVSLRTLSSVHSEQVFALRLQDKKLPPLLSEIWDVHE

[5] = biological target: T3, Aryl hydrocarbon receptor (Homo sapiens, UniProt P35869); test: Luminescence-based cell-based high throughput dose response assay for activators of the Aryl Hydrocarbon Receptor (AHR). [Related pubchem assays: 2796 (Primary screen (AHR activators in singlicate)), 2845 (Confirmation screen (AHR activators in triplicate)), 434939 (Counterscreen (PXR activators in triplicate)), 2804 (Summary (AHR activators))]; type: ADME
T3 sequence (P35869 whole entry): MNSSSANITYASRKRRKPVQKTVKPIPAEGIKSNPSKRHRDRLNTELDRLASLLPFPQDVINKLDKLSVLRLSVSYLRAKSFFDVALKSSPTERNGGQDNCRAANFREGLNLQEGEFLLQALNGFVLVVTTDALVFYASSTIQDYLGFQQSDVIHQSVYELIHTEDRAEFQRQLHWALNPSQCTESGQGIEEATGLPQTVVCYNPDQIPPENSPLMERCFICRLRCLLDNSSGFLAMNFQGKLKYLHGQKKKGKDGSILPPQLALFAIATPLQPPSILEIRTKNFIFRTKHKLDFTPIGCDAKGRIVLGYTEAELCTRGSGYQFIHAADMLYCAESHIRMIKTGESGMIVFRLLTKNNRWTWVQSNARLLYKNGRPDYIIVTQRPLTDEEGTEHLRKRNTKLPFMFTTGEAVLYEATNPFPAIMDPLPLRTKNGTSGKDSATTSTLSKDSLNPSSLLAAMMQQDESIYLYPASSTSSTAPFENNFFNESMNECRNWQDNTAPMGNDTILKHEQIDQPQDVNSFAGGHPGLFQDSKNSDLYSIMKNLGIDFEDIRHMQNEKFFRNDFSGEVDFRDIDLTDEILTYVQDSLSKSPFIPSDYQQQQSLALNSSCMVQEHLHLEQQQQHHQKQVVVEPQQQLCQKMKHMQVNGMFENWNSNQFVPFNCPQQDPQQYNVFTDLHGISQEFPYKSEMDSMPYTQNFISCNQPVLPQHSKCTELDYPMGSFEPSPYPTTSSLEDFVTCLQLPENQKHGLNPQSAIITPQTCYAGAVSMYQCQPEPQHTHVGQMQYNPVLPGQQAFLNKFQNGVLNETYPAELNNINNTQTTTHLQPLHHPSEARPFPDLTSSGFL

[6] = biological target: T4, Protein skinhead-1 (Caenorhabditis elegans, UniProt P34707); type: functional
T4 sequence (P34707 whole entry): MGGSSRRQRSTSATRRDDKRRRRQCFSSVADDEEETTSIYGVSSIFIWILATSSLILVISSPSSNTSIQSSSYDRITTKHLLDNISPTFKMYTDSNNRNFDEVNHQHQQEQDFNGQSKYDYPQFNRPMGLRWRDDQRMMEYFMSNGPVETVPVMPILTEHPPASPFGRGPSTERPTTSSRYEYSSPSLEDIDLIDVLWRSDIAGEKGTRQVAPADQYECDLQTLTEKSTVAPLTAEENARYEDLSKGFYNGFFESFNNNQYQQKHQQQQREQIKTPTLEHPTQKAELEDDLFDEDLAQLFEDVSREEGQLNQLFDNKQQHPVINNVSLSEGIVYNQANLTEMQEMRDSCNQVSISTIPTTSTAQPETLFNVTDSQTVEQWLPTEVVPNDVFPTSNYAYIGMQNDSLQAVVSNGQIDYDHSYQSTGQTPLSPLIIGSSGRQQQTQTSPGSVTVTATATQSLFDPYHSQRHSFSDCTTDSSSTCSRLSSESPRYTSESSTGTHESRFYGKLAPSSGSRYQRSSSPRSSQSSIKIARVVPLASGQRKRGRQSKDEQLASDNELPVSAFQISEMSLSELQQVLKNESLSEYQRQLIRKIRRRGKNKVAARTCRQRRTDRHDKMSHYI

[7] = biological target: X-box-binding protein 1 (Homo sapiens, UniProt P17861); type: functional, Cricetulus griseus;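 also: confirmatory dose-response counter-screen serving a CHOP assay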
[8] = Luminescence Cell-Based Dose Response HTS to Identify Inhibitors of 5'UTR Stem-Loop Driven Prion Protein mRNA Translation in H4 Neuroglioblastoma Cells. [Related pubchem assays: 1827 (Project Summary), 1813 (Primary HTS)]; type: functional
[9] = inhibitors of SNCA 5'UTR-driven reporter translation, confirmation, H4 neuroglioma cells, luminescence (AID 1988); type: functional, cell-based
[10] = tested on: INS1; test: beta cell apoptosis inhibitors, cytokine rescue, dose response, luminescence, retest (AID 449756); type: functional, cell-based; details: Rattus norvegicus;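 also: cell death triggered by IL-1 beta plus TNF-alpha plus IFN-gamma mixture; protective hits raise ATP signal compared with cytokine alone wells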
[11] = growth suppression of beta-catenin-knockout colon cells, dose response, cell-based, HCT116, human colon tumor (AID 1045); type: functional;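 also: HCT116 colon tumor cells with beta catenin knocked out; cells exposed to compound for 60 hours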
[12] = biological target: Melanocortin receptor 4 (Homo sapiens, UniProt P32245); type: functional, cell-based;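 also: Cell-based assay with luminescence read-out, confirmatory dose-response testing for agonist activity of biased ligands at MC4R; human U2OS cells with tagged receptor and beta-arrestin; potency of agonists that increase receptor coupling to beta-arrestin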
[13] = microbe, parasite or virus in culture; type: functional; details: Mycobacterium tuberculosis
[14] = growth suppression of PTEN-null colon cells, dose response, cell-based, HCT116 PTEN knockout (AID 1047); type: functional;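 also: HCT116 colon tumor cells with PTEN knocked out; cells exposed to compound for 60 hours before readout; potency for loss of cell viability measured by luminescence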
[15] = tested on: Streptococcus sp. 'group A'; test: growth inhibition of control SK(-) GAS strain, dose response, counter-screen for streptokinase expression inhibitor project, luminescence, kanamycin, BacTiterGlo, confirmation (AID 1900); type: functional, organism-based
[16] = biological target: T5, Heat shock factor protein 1 (Mus musculus, UniProt P38532); test: inhibition of MG132-induced HSE-luciferase signal, confirmation, cell-based, NIH3T3, luminescence, dose retest (AID 2382); type: functional;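 also: NIH3T3 fibroblasts with HSF1-driven luciferase reporter stressed by proteasome inhibitor MG132; luminescence from HSF1-driven luciferase expression after 8 hours of MG132 stress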
T5 sequence (P38532 whole entry): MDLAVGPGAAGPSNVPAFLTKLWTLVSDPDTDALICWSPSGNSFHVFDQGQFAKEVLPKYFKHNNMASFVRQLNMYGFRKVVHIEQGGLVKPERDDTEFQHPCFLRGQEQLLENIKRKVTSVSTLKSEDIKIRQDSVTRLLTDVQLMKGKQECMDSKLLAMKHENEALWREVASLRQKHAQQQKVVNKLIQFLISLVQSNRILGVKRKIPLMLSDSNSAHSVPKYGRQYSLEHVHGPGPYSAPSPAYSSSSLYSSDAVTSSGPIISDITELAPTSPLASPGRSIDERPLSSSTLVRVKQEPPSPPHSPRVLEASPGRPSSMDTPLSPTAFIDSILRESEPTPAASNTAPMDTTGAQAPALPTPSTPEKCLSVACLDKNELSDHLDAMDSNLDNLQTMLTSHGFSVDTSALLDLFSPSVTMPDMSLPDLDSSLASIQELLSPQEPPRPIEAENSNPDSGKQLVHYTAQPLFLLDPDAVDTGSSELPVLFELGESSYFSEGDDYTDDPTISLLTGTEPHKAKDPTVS

[17] = cytotoxicity in HEK-293T cells, dose response, cytotoxicity control for TCR NF-kB inhibitor project, luminescence, T-cell screen hits (AID 489026); type: functional, cell-based;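 also: cells exposed to compound about 14 hours before the viability readout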
[18] = tested on: Streptococcus; test: Group A Streptococcus viability loss, dose response, counter-screen for streptokinase expression inhibitor project, luminescence, BacTiterGlo (AID 1915); type: functional, organism-based;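 also: potency for reduction of bacterial viability or growth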
[19] = biological target: Neurotensin receptor type 1 (Homo sapiens, UniProt P30989); type: functional;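 also: Image-based confirmatory dose-response assay measuring agonist activity at NTR1; NTR1-expressing U2OS osteosarcoma cells imaged for beta-arrestin GFP spot formation; agonist potency where compounds increase beta-arrestin recruitment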
[20] = biological target: T6, Streptokinase A (Streptococcus pyogenes serotype M1, UniProt P10520); test: S. pyogenes streptokinase expression inhibitors, potency, dose response, plasminogen activation absorbance, OD405 (AID 1914); type: functional, Streptococcus pyogenes M1 GAS;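 also: secreted streptokinase activity via plasminogen activation per viability signal from cell pellet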
T6 sequence (P10520 whole entry): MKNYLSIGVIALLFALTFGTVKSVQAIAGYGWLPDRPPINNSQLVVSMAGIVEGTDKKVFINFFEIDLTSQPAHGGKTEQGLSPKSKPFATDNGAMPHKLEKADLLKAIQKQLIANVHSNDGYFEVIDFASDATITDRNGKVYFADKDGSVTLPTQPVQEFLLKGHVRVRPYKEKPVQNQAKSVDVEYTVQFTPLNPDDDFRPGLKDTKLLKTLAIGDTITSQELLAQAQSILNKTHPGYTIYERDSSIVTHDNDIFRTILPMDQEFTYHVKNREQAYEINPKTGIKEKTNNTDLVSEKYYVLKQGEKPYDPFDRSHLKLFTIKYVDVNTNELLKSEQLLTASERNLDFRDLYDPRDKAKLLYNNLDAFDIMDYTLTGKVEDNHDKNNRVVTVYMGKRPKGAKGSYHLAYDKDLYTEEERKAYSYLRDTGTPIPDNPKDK

[21] = inhibitors of firefly luciferase expression or activity, dose response, H4 neuroglioma cells, luminescence (AID 1990); type: functional, cell-based

Chain of DNA damage-inducible transcript 3 protein (P35639 whole entry, the tested form may be a part): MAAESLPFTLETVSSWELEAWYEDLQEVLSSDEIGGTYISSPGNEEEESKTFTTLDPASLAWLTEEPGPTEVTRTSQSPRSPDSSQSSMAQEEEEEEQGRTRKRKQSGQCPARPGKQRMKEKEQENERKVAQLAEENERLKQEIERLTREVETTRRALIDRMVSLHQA
Chain of Melanocortin receptor 4 (P32245 whole entry): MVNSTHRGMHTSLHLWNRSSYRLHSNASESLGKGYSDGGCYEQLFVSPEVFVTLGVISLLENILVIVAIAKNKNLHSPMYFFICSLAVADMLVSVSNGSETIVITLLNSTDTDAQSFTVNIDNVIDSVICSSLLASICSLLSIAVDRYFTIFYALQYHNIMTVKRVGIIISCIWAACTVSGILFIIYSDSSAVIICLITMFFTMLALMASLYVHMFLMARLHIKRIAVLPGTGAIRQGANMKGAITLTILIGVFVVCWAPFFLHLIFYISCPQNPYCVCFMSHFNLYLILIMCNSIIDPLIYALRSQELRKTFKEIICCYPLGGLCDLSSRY
Chain of X-box-binding protein 1 (P17861 whole entry): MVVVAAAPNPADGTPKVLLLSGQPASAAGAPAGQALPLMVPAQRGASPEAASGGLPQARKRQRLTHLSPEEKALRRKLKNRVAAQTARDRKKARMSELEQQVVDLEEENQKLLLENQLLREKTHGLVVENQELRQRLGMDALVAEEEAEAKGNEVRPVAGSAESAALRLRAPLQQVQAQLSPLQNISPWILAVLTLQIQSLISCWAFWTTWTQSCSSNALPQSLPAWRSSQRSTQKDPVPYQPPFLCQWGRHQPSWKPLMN
Chain of Neurotensin receptor type 1 (P30989 whole entry): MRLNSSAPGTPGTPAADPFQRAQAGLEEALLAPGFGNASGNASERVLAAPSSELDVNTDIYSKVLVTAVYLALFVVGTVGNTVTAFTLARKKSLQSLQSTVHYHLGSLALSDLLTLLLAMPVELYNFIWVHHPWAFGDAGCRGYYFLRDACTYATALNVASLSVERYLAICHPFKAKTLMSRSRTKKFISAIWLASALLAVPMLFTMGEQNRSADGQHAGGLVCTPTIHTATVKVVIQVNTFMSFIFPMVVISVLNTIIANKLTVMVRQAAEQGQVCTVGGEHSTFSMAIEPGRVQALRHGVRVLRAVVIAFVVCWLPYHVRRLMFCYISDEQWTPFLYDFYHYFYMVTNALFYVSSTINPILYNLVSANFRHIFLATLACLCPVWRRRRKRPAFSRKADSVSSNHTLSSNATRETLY

COc1cccc(N2CCN(Cc3ccsc3)CC2)c1
IC50 [1]: > 100 µM (inactive)

Clc1ccc(Nc2nc(-c3cccs3)cs2)nc1
CC50 [2]: 8.33 µM (active) | Absolute IC50 (CHOP) [3]: 10 µM | EC50 [4]: > 67.5 µM (inactive) | EC50 [5]: 1.58 µM (active) | IC50 [6]: 13.6 µM (active) | Absolute IC50 (XBP1) [7]: 10 µM

CC1=NNC(=O)/C1=C\c1cn(-c2ccccc2)nc1-c1ccc(Cl)cc1
EC50 [8]: > 60 µM (not active) | EC50 [9]: 7.48 µM (active) | AC50 [10]: 8.09 µM (active) | EC50 [11]: 3.51 µM (active) | EC50 [12]: > 89.2 µM (inactive) | CC50 [13]: 20.2 µM (active) | EC50 [14]: 3.63 µM (active) | EC50 [15]: 5 µM (active) | EC50 [16]: 6.61 µM (active) | IC50 [17]: > 80 µM (inactive) | EC50 [18]: 14.5 µM (active) | EC50 [19]: 16.8 µM (active) | EC50 [20]: 4.83 µM (active) | EC50 [21]: > 30 µM (inconclusive)
